Patent US20040133936A1, “Enzyme” (priority 2000, published 2004)

How the values were obtained:
[1] = target: T1, native enzyme (myrosinase) from white mustard seed (Sinapis alba) (Sinapis alba, UniProt P29736); conditions: stable glycosyl-enzyme intermediate at the active site; cited from earlier work
T1 construct: the native enzyme from white mustard seed (Sinapis alba) has been crystallised; host or cells: white mustard seed

[2] = target: T2, myrosinase from the cabbage aphid (Brevicoryne brassicae) (Brevicoryne brassicae, UniProt Q95X01); test: Kinetic studies of aphid myrosinase (glucose released by glucosinolate hydrolysis); type: biochemical; conditions: for Km: substrate, read-out: apparent Km of the aphid myrosinase
T2 construct: The myrosinase from freeze-dried aphids was purified in five steps; from tissue; host or cells: whole freeze-dried Brevicoryne brassicae aphids
T2 sequence (Q95X01 1-464): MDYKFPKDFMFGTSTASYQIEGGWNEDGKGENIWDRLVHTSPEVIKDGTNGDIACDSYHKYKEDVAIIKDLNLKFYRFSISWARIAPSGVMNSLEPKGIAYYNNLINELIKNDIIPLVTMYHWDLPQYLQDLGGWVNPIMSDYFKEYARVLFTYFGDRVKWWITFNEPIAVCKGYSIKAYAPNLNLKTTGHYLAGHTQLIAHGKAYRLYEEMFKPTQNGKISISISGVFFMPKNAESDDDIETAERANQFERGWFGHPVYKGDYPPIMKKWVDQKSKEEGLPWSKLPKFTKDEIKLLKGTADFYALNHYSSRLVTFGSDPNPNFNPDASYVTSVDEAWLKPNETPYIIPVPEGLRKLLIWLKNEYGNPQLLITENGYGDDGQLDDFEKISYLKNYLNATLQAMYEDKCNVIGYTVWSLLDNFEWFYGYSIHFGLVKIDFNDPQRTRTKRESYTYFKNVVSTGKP
Method: (§1) An assay based on the determination of glucose released by the hydrolysis of 2-propenyl glucosinolate (sinigrin) by the aphid myrosinase was used routinely to determine enzyme activity during protein purification. GOD-Perid test reagents were purchased from Boehringer Mannheim.
(§2) Enzyme solution and sinigrin (1.08 mM) in 500 μl of sodium citrate buffer (100 mM, pH 5.5) was incubated at 30° C. for 20 min. The reaction was stopped by addition of 40 μl 3M HCl (aq) and GOD-PERID reagent (2.5 ml) added to the reaction mixture and incubated for 15 min at 37° C. The optical density was read at 346 nm and the glucose concentration calculated from a calibration graph.
The present inventors have performed a number of kinetic studies on the myrosinase from the cabbage aphid (Brevicoryne brassicae) which they have characterised. […] Like the cabbage aphid, the turnip aphid (Lipaphis erysimi) myrosinase was not activated by ascorbate in the concentration range 0.1-20 mM. The KM for sinigrin is 0.42 mM for the white mustard (Sinapis alba) myrosinase.

[3] = target: white mustard (Sinapis alba) myrosinase (Sinapis alba, UniProt P29736); test: KM of white mustard myrosinase; type: biochemical; conditions: substrate
[4] = system: myrosinase from the mustard plant Brassica nigra; conditions: substrates 2-propenyl and 2-hydroxy-3-butenyl glucosinolate; cited from earlier work
[5] = target: T3, myrosinase from the cabbage aphid B. brassicae (Brevicoryne brassicae, UniProt Q95X01); conditions: substrates 2-propenyl and 2-hydroxy-3-butenyl glucosinolate; cited from earlier work
T3 sequence (Q95X01 1-464): T2 sequence (Q95X01 1-464)

[6] = system: plant myrosinase; conditions: cited from earlier work
[7] = system: turnip aphid (Lipaphis erysimi) myrosinase; test: Ascorbate activation of turnip aphid myrosinase; type: biochemical; conditions: concentration range 0.1-20 mM
[8] = Myrosinase micro assay (glucose released by hydrolysis of sinigrin); type: biochemical; conditions: sinigrin 1.08 mM, pH 5.5, 30° C.
Method: as §1
as §2, with “ml) was” for “ml)”

Sequence of white mustard (Sinapis alba) myrosinase (P29736 whole entry): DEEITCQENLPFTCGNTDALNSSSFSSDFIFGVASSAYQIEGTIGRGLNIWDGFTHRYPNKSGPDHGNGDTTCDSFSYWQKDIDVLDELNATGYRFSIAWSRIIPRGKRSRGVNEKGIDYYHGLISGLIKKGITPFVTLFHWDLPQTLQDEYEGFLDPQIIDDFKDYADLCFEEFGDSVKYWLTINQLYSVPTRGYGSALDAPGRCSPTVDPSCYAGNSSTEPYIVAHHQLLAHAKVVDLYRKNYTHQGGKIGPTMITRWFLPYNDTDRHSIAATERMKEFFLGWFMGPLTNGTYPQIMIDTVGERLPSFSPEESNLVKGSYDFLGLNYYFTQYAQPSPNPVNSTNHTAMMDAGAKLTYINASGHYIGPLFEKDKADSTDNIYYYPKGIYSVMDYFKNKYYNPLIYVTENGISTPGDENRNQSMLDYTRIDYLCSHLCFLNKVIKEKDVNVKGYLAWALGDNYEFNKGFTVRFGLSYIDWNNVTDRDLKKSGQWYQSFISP
T1 sequence (P29736 whole entry): as above

For `O=S(=O)(O)ON=C(Cc1ccccc1)S[C@@H]1O[C@H](CO)[C@@H](O)[C@H](O)[C@H]1F` [2-deoxy-2-fluoroglucotropaeolin], the “inhibition of the enzyme” value [1] is given as “potent inhibitor”, the Ki [2] is given as “extremely low” and the type of inhibition [2] is given as “competitively inhibited”.

Molecule `C=CC/C(=N/OS(=O)(=O)O)S[C@@H]1O[C@H](CO)[C@@H](O)[C@H](O)[C@H]1O` [2-propenylglucosinolate] has a Km [3] of 420 µM and a Km [2] of 613 µM.

For `OC[C@H]1NC[C@@H](O)[C@@H]1O` [AB1, 1,4-dideoxy-1,4-imino-D-arabinitol], the “inhibition of plant myrosinase” value [4] is given as “not significantly” and the “inhibition of aphid myrosinase” value [5] is given as “inhibited”.

For `OC[C@@H]1[C@@H](O)[C@H](O)[C@@H]2[C@@H](O)CCN21` [Alexine], the “inhibition of plant myrosinase” value [4] is given as “not significantly” and the “inhibition of aphid myrosinase” value [5] is given as “inhibited”.

For `O=C1O[C@H](CO)[C@@H](O)[C@H](O)[C@H]1O` [D-glucono-β-lactone], the “inhibition of plant myrosinase” value [6] is given as “poor inhibitors”.

In the case of `OC[C@H]1N[C@H](CO)[C@@H](O)[C@@H]1O` [DMDP, (2R, 5R)-dihydroxymethyl-(3R,4R)-dihydroxypyrrolidine], the “inhibition of plant myrosinase” value [4] is given as “effectively inhibited” and the “inhibition of aphid myrosinase” value [5] is given as “effectively inhibited”.

For `OC[C@H]1NC[C@H](O)[C@@H](O)[C@@H]1O` [DNJ, 1-deoxynojirimycin], the “inhibition of plant myrosinase” value [4] is listed as “not significantly” and the “inhibition of aphid myrosinase” value [5] is listed as “inhibited”.

In the case of `O=C1O[C@H]([C@@H](O)CO)C(O)=C1O` [ascorbate, ascorbic acid], the activation by ascorbate ([2]; concentration range 0.1-20 mM) is given as “not activated”, the activation by ascorbate [7] is given as “not activated” and the “inhibition of plant myrosinases” value ([6]; high concentrations) is given as “inhibited”. For the same molecule, the “activation of plant myrosinases” value ([6]; low concentrations) was “activated”.

Molecule `O=S(=O)(O)O/N=C(\Cc1ccccc1)S[C@@H]1O[C@H](CO)[C@@H](O)[C@H](O)[C@H]1O` [benzyl glucosinolate] has a Km [2] of 915 µM.

In the case of `O[C@H]1[C@H](O)[C@@H](O)CN2CC[C@H](O)[C@H]12` [castanospermine], the “inhibition of plant myrosinase” value [4] is listed as “effectively inhibited” and the “inhibition of aphid myrosinase” value [5] is listed as “effectively inhibited”.

B1: Pure aphid myrosinase: myrosinase enzyme purified to homogeneity from Brevicoryne brassicae (SEQ ID NO. 1) (protein, listed as Brevicoryne brassicae)
chain: T2 sequence (Q95X01 1-464)
Work on B1 yielded a Specific activity [8] of 20.000 µmol/mg/min.
